Measurements taken from ChEMBL document CHEMBL1122477, “Neuroleptic activity and dopamine-uptake inhibition in 1-piperazino-3-phenylindans” (J Med Chem, 1983).

How the values were obtained:
[1] = biological target: Norepinephrine transporter (Rattus norvegicus, UniProt Q9WTR4)
Description: Effect on synaptosomal uptake inhibition of Noradrenaline (NA)

Rattus norvegicus [2] = assay: Tested orally in rats for antagonism of stereotypies induced by amphetamine; format: functional
Rattus norvegicus [3] = species: Rattus norvegicus; assay: animal or person; conditions: po
Description: (§1) Ability to induce catalepsy in rats perorally, an effect normally related to clinical extrapyramidal side effects

Mus musculus [4] = species: Mus musculus; assay: animal or person; conditions: ip
Description: (§2) Compound (administered intraperitoneally) was assessed for neuroleptic activity to antagonize methyl phenidate induced stereotypes in mice

Mus musculus [5] = species: Mus musculus
Description: as §2

[6] = biological target: T1, Sodium-dependent serotonin transporter (Rattus norvegicus, UniProt P31652); assay: Effect on synaptosomal uptake inhibition of 5-hydroxytryptamine (5-HT); format: functional
Mus musculus [7] = species: Mus musculus; assay: Assessed for thymoleptic activity by its ability to antagonize tetrabenazine ptosis in mice; format: functional
Rattus norvegicus [8] = species: Rattus norvegicus
Description: as §1

[9] = biological target: T1, Sodium-dependent serotonin transporter
[10] = biological target: Sodium-dependent dopamine transporter (Rattus norvegicus, UniProt P23977)
Description: Effect on synaptosomal uptake inhibition of Dopamine transporter

[11] = Rattus norvegicus, po, read-out: ED50

Sequence of Sodium-dependent dopamine transporter (P23977 whole entry): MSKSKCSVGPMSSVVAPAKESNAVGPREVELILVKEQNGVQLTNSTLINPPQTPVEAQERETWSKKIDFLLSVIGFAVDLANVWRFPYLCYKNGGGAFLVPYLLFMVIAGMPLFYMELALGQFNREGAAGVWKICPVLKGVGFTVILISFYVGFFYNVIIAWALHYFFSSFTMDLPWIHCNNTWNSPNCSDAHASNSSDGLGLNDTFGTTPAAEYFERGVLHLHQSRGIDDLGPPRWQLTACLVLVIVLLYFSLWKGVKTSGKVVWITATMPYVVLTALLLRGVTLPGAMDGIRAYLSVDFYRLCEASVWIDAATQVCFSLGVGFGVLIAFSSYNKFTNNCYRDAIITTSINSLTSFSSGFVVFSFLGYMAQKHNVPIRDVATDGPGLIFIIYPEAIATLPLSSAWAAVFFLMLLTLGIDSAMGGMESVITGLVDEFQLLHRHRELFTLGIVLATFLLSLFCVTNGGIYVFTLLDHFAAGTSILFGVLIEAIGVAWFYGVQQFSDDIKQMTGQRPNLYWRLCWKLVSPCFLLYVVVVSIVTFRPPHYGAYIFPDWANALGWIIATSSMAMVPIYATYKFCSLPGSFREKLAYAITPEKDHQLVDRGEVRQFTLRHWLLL
T1 sequence (P31652 whole entry): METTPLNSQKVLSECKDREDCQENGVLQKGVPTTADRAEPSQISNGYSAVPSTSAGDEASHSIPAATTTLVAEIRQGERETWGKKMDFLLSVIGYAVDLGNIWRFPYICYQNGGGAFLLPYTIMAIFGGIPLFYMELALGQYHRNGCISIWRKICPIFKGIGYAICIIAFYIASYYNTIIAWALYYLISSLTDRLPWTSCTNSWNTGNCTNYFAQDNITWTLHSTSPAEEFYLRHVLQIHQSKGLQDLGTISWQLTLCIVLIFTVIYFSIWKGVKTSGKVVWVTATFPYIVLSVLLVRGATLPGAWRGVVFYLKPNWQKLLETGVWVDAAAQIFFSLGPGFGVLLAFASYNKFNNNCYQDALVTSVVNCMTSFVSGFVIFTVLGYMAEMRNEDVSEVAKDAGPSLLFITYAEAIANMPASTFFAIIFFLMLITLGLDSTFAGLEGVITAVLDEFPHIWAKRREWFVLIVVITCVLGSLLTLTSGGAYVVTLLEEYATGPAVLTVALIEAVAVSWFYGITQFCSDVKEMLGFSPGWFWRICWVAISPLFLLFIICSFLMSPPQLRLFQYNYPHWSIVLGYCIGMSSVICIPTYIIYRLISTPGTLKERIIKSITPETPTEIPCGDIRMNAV
Sequence of Norepinephrine transporter (Q9WTR4 whole entry): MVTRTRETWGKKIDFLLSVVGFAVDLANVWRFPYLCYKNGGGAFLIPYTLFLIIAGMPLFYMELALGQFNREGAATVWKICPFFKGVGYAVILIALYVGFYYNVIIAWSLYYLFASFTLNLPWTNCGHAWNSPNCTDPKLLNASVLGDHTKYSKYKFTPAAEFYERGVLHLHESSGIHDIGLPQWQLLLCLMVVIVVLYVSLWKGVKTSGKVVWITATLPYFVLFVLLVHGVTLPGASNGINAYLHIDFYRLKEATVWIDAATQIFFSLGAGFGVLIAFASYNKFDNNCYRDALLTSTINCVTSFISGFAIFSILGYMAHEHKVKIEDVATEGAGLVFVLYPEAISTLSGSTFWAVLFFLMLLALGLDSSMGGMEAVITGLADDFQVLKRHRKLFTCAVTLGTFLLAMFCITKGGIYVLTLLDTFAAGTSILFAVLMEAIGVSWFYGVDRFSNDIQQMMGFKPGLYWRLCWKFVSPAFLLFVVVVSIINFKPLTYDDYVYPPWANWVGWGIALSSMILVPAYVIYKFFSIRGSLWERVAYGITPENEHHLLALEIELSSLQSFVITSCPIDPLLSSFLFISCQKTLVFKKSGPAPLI
Description for Dopamine receptor: Effect on synaptosomal uptake inhibition of Dopamine receptor

## CN1Cc2c(N)cccc2C(c2ccccc2)C1 (configuration not stated) [NOMIFENSINE]
Dopamine receptor
  IC50: 48 nM
[1]
  IC50: 6.6 nM

## COc1ccc2c(c1)C(N1CCN(CCO)CC1)CC2c1ccc(F)cc1 (trans isomer)
Rattus norvegicus [2]; [11]
  ED50: 38 µmol/kg
Rattus norvegicus [3]
  ED50: 102 µmol/kg
Mus musculus [4]
  ED50: 19 µmol/kg

## OCCN1CCN([C@@H]2C[C@@H](c3ccc(Cl)cc3)c3ccc(C(F)(F)F)cc32)CC1 (relative stereo)
Rattus norvegicus [2]; [11]
  ED50: 22 µmol/kg
Rattus norvegicus [3]
  ED50: 29 µmol/kg
Mus musculus [4]
  ED50: 40 µmol/kg

## Fc1ccc(C2CC(N3CCN(CCc4ccccc4)CC3)c3cc(F)ccc32)cc1 (trans isomer)
Mus musculus [5]
  ED50: 37 µM/kg

## OCCCN1CCN(C2CC(c3ccc(F)cc3)c3ccc(F)cc32)CC1 (cis isomer)
Mus musculus [5]
  ED50: >90 µM/kg

## CN1CCN(C2CC(c3ccc(Cl)c(Cl)c3)c3ccccc32)CC1.Cl.Cl (stereo in doubt; 97)
Dopamine receptor
  IC50: 4.4 nM
[1]
  IC50: 7.7 nM
[6]
  IC50: 630 nM
Mus musculus [7]
  ED50: 100 µM/kg

## OCCCN1CCN(C2CC(c3ccc(Cl)c(Cl)c3)c3ccccc32)CC1 (configuration not stated)
Dopamine receptor
  IC50: 15 nM
[1]
  IC50: 6.8 nM
[6]
  IC50: 120 nM
Mus musculus [7]
  ED50: 12 µM/kg

## CN(C)C[C@H]1C2CCC(CC2)[C@H]1c1ccc(Cl)c(Cl)c1 (relative stereo)
[6]
  IC50: 13 nM

## OCCN1CCN(C2CC(c3ccc(F)cc3)c3ccc(Cl)cc32)CC1 (trans isomer)
Rattus norvegicus [2]; [11]
  ED50: 3.5 µmol/kg
Rattus norvegicus [3]
  ED50: 3.3 µmol/kg
Mus musculus [4]
  ED50: 2.8 µmol/kg

## Cl.Cl.OCCN1CCN(C2CC(c3ccc(Cl)c(Cl)c3)c3ccccc32)CC1 (trans isomer)
Dopamine receptor
  IC50: 2.8 nM
[1]
  IC50: 8.2 nM
[6]
  IC50: 210 nM
Mus musculus [7]
  ED50: 45 µM/kg

## CCN1CCN(C2CC(c3ccc(F)cc3)c3ccc(F)cc32)CC1.Cl.Cl (trans isomer)
Rattus norvegicus [2]; [11]
  ED50: 14 µmol/kg
Mus musculus [5]
  ED50: 7 µM/kg
Rattus norvegicus [3]
  ED50: 53 µmol/kg

## OCC(O)CN1CCN(C2CC(c3ccc(F)cc3)c3ccc(F)cc32)CC1 (configuration not stated)
Rattus norvegicus [8]
  ED50: >102 µM/kg
Mus musculus [5]
  ED50: >51 µM/kg

## Cl.Cl.Clc1ccc(C2CC(N3CCN(C/C=C/c4ccccc4)CC3)c3ccccc32)cc1Cl (cis isomer)
Dopamine receptor
  IC50: 35 nM
Mus musculus [7]
  ED50: >73 µM/kg

## CCN1CCN(C2CC(c3ccc(F)cc3)c3ccc(F)cc32)CC1.Cl.Cl (cis isomer)
Mus musculus [5]
  ED50: >96 µM/kg

## NC(=O)CN1CCN(C2CC(c3ccc(F)cc3)c3ccc(F)cc32)CC1 (trans isomer)
Mus musculus [4]
  ED50: > 88 µmol/kg

## Fc1ccc(C2CC(N3CCN(CCc4ccccc4)CC3)c3cc(F)ccc32)cc1 (cis isomer)
Mus musculus [5]
  ED50: >95 µM/kg

## Cl.Cl.OCCCN1CCN(C2CC(c3ccc(F)cc3)c3ccc(F)cc32)CC1 (configuration not stated)
Rattus norvegicus [2]; [11]
  ED50: 5.2 µmol/kg
Mus musculus [5]
  ED50: 3.7 µM/kg
Rattus norvegicus [3]
  ED50: 8.3 µmol/kg

## CC(O)CN1CCN(C2CC(c3ccc(F)cc3)c3ccc(F)cc32)CC1.Cl.Cl (stereo in doubt; 72)
Mus musculus [5]
  ED50: 45 µM/kg

## Cc1ccc2c(c1)C(N1CCN(CCO)CC1)CC2c1ccc(F)cc1 (trans isomer)
Rattus norvegicus [2]; [11]
  ED50: 21 µmol/kg
Rattus norvegicus [3]
  ED50: 17 µmol/kg
Mus musculus [4]
  ED50: 7.6 µmol/kg

## Cl.Cl.Fc1ccc(C2CC(N3CCN(CC4CC4)CC3)c3cc(F)ccc32)cc1 (stereo in doubt; 59)
Rattus norvegicus [2]; [11]
  ED50: 36 µmol/kg
Mus musculus [5]
  ED50: 11 µM/kg
Rattus norvegicus [3]
  ED50: 53 µmol/kg

## CC(C)(O)CN1CCN(C2CC(c3ccc(F)cc3)c3ccc(F)cc32)CC1 (trans isomer)
Rattus norvegicus [2]; [11]
  ED50: 30 µmol/kg
Mus musculus [4]
  ED50: > 87 µmol/kg

## CS(=O)(=O)c1ccc2c(c1)C(N1CCN(CCO)CC1)CC2c1ccc(F)cc1 (trans isomer)
Mus musculus [4]
  ED50: 20 µmol/kg

## CN1CCN(C2CC(c3ccc(Cl)c(Cl)c3)c3ccccc32)CC1.Cl.Cl (trans isomer)
Dopamine receptor
  IC50: 11 nM
[1]
  IC50: 32 nM
[6]
  IC50: 200 nM
Mus musculus [7]
  ED50: 48 µM/kg

## OCCN1CCN(C2CC(c3ccc(F)cc3)c3cc(F)ccc32)CC1 (trans isomer)
Rattus norvegicus [2]; [11]
  ED50: > 93 µmol/kg
Rattus norvegicus [3]
  ED50: > 93 µmol/kg
Mus musculus [4]
  ED50: 14 µmol/kg

## CSc1ccc2c(c1)C(N1CCN(CCO)CC1)CC2c1ccc(F)cc1 (configuration not stated)
Rattus norvegicus [2]; [11]
  ED50: 20 µmol/kg
Rattus norvegicus [3]
  ED50: 14 µmol/kg
Mus musculus [4]
  ED50: 2.8 µmol/kg

## Cl.Cl.OCC(CO)N1CCN(C2CC(c3ccc(F)cc3)c3ccc(F)cc32)CC1 (trans isomer)
Rattus norvegicus [2]; [11]
  ED50: 25 µmol/kg
Mus musculus [5]
  ED50: 4.2 µM/kg
Rattus norvegicus [3]
  ED50: 124 µmol/kg

## N#CCCN1CCN(C2CC(c3ccc(F)cc3)c3ccc(F)cc32)CC1 (trans isomer)
Rattus norvegicus [2]; [11]
  ED50: > 91 µmol/kg
Mus musculus [4]
  ED50: 73 µmol/kg

## CN1CCN(C2CCC(c3ccc(F)cc3)c3ccc(F)cc32)CC1 (trans isomer)
Mus musculus [5]
  ED50: >117 µM/kg

## CN1CCN(C2Cc3ccccc3Sc3ccc(Cl)cc32)CC1 (configuration not stated) [CLOROTEPINE]
Rattus norvegicus [2]; [11]
  ED50: 0.56 µmol/kg
Rattus norvegicus [3]
  ED50: 4.5 µmol/kg
Mus musculus [4]
  ED50: 6.7 µmol/kg

## OCCN1CCN([C@@H]2C[C@@H](c3ccccc3)c3ccc(C(F)(F)F)cc32)CC1 (relative stereo)
Rattus norvegicus [2]; [11]
  ED50: 10.4 µmol/kg
Rattus norvegicus [3]
  ED50: 5.7 µmol/kg
Mus musculus [4]
  ED50: 4.7 µmol/kg

## CN1CCN(C2CCC(c3ccc(F)cc3)c3ccc(F)cc32)CC1 (stereo in doubt; 3b)
Mus musculus [4]
  ED50: > 96 µmol/kg

## CN1CCN(C2CC(c3ccc(F)cc3)c3ccc(F)cc32)CC1.Cl.Cl (stereo in doubt; 56)
[9]
  IC50: 6100 nM
Rattus norvegicus [2]
  ED50: >95 µM/kg
Mus musculus [5]
  ED50: >95 µM/kg
[10]
  IC50: 110 nM

## Cl.Cl.Fc1ccc(C2CC(N3CCN(C/C=C/c4ccccc4)CC3)c3cc(F)ccc32)cc1 (stereo in doubt; 64)
[9]
  IC50: 400 nM
Mus musculus [5]
  ED50: >79 µM/kg
[10]
  IC50: 210 nM

## Cl.Cl.OCC(CO)N1CCN(C2CC(c3ccc(F)cc3)c3ccc(F)cc32)CC1 (stereo in doubt; 77)
Mus musculus [5]
  ED50: >43 µM/kg

## CC(O)CN1CCN(C2CC(c3ccc(F)cc3)c3ccc(F)cc32)CC1.Cl.Cl (stereo in doubt; 71)
Rattus norvegicus [2]; [11]
  ED50: 12 µmol/kg
Mus musculus [5]
  ED50: 2.8 µM/kg
Rattus norvegicus [3]
  ED50: 37 µmol/kg

## Cl.Cl.OCCN1CCN(C2CC(c3ccc(Cl)c(Cl)c3)c3ccccc32)CC1 (cis isomer)
Dopamine receptor
  IC50: 12 nM
[1]
  IC50: 10 nM
[6]
  IC50: 600 nM
Mus musculus [7]; Mus musculus, read-out: ED50
  ED50: 72 µmol/kg

## CN1CCN(C2CC(c3ccc(Cl)c(Cl)c3)c3ccccc32)CC1.Cl.Cl (single isomer, unassigned; 99)
Dopamine receptor
  IC50: 2.3 nM
[1]
  IC50: 2.5 nM
[6]
  IC50: 530 nM
Mus musculus [7]
  ED50: 69 µM/kg

## Cc1ccc([C@@H]2C[C@@H](N3CCN(CCO)CC3)c3cc(C(F)(F)F)ccc32)cc1 (relative stereo)
Rattus norvegicus [2]; [11]
  ED50: 64 µmol/kg
Rattus norvegicus [3]
  ED50: > 81 µmol/kg
Mus musculus [4]
  ED50: 42 µmol/kg

## Fc1ccc(C2CC(N3CCN(C/C=C/c4ccccc4)CC3)c3cc(F)ccc32)cc1 (stereo in doubt; 63)
[9]
  IC50: 160 nM
[10]
  IC50: 340 nM
Mus musculus [4]
  ED50: 57 µmol/kg

## OCCN1CCN(C2CC(c3ccc(F)cc3)c3ccccc32)CC1 (configuration not stated)
Mus musculus [4]
  ED50: > 118 µmol/kg

## CN1CCN(C2CC(c3ccc(Cl)c(Cl)c3)c3ccccc32)CC1.Cl.Cl (single isomer, unassigned; 95)
Dopamine receptor
  IC50: 340 nM
[1]
  IC50: 120 nM
[6]
  IC50: 2500 nM
Mus musculus [7]
  ED50: >91 µM/kg

## Cl.Cl.OCCN1CCN(C2CC(c3ccc(Cl)cc3Cl)c3ccccc32)CC1 (cis isomer)
Dopamine receptor
  IC50: 2000 nM
Mus musculus [7]
  ED50: >94 µM/kg

## CC(C)c1ccc2c(c1)C(N1CCN(CCO)CC1)CC2c1ccc(F)cc1 (trans isomer)
Rattus norvegicus [2]; [11]
  ED50: 26 µmol/kg
Rattus norvegicus [3]
  ED50: 17 µmol/kg
Mus musculus [4]
  ED50: 9.6 µmol/kg

## CN1CCN(C2CC(c3ccc(Cl)c(Cl)c3)c3ccccc32)CC1.Cl.Cl (single isomer, unassigned; 96)
Dopamine receptor
  IC50: 10 nM
[1]
  IC50: 7.8 nM
[6]
  IC50: 230 nM
Mus musculus [7]
  ED50: 26 µM/kg

## Cl.Cl.Fc1ccc(C2CC(N3CCN(CC4CC4)CC3)c3cc(F)ccc32)cc1 (stereo in doubt; 60)
Mus musculus [5]
  ED50: >91 µM/kg

## Cl.Cl.Clc1ccc(C2CC(N3CCN(C/C=C/c4ccccc4)CC3)c3ccccc32)cc1Cl (stereo in doubt; 104)
Dopamine receptor
  IC50: 100 nM
Mus musculus [7]; Mus musculus, read-out: ED50
  ED50: > 75 µmol/kg

## OCCN1CCN([C@@H]2C[C@@H](c3ccc(Cl)cc3)c3ccc(Cl)cc32)CC1 (relative stereo)
Rattus norvegicus [3]
  ED50: > 86 µmol/kg
Mus musculus [4]
  ED50: > 86 µmol/kg

## Cl.Cl.OCCCN1CCN(C2CC(c3ccc(Cl)c(Cl)c3)c3ccccc32)CC1 (configuration not stated)
Dopamine receptor
  IC50: 5.6 nM
[1]
  IC50: 0.3 nM
[6]
  IC50: 440 nM
Mus musculus [7]
  ED50: 71 µM/kg

## Cl.Cl.OCCN1CCN(C2CC(c3ccc(Cl)cc3Cl)c3ccccc32)CC1 (trans isomer)
Dopamine receptor
  IC50: 4500 nM
Mus musculus [7]; Mus musculus, read-out: ED50
  ED50: > 86 µmol/kg
